21 compounds from patent US9670221B2, “Furopyridines as bromodomain inhibitors” (GlaxoSmithKline Intellectual Property (No.2) Limited, priority 2013, dated 2017) can be followed below.

The assay deals with T1, BRD4 BD1 (Homo sapiens, UniProt O60885, Y390A).
T1 construct: BRD4 (1-477) (Y97A) and (Y390A); made in house; host or cells: E. coli (pET15b vector)
The experiment in a line: TR-FRET binding assay, BRD4 BD1 (mutant protein). The following applies: BRD4 (1-477) mutant, 10 nM protein, read-out: pIC50 in the BRD4 BD1 assay (converted). As to the method:
Time Resolved Fluorescence Resonance Energy Transfer (TR-FRET) Assay
Binding was assessed using a time resolved fluorescent resonance energy transfer binding assay. This utilises a 6 His purification tag at the N-terminal of the proteins as an epitope for an anti-6 His antibody labeled with Europium chelate (PerkinElmer AD0111) allowing binding of the Europium to the proteins which acts as the donor fluorophore. A small molecule, high affinity binder of the bromodomains BRD2, BRD3, BRD4 and BRDT has been labeled with Alexa Fluor647 (Reference Compound X) and this acts as the acceptor in the FRET pair.
Assay Principle: In the absence of a competing compound, excitation of the Europium causes the donor to emit at λ618 nm which excites the Alexa labelled bromodomain binding compound leading to an increased energy transfer that is measurable at λ647 […]. In the presence of a sufficient concentration of a compound that can bind these proteins, the interaction is disrupted leading to a quantifiable drop in fluorescent resonance energy transfer.
The binding of the compounds of formula (I) to Bromodomains BRD2, BRD3, BRD4 and BRDT was assessed using mutated proteins to detect differential binding to either Binding Domain 1 (BD1) or Binding Domain 2 (BD2) on the bromodomain. These single residue mutations in the acetyl lysine binding pocket greatly lower the affinity of the fluoroligand (Reference Compound X) for the mutated domain (>1000 fold selective for the non-mutated domain). Therefore in the final assay conditions, binding of the fluoroligand to the mutated domain cannot be detected and subsequently the assay is suitable to determine the binding of compounds to the single non-mutated bromodomain.
Protein production: Recombinant Human Bromodomains [(BRD2 (1-473) (Y113A) and (Y386A), BRD3 (1-435) (Y73A) and (Y348A) BRD4 (1-477) (Y97A) and (Y390A) and BRDT (1-397) (Y66A) and (Y309A)] were expressed in E. coli cells (in pET15b vector for BRD2/3/4 and in pET28a vector for BRDT) with a 6-His tag at the N-terminal. The His-tagged Bromodomain pellet was resuspended in 50 mM HEPES (pH7.5), 300 mM NaCl, 10 mM imidazole & 1 μl/mL protease inhibitor cocktail and extracted from the E. coli cells using sonication and purified using a nickel sepharose high performance column, the proteins were washed and then eluted with a linear gradient of 0-500 mM imidazole with buffer 50 mM HEPES (pH7.5), 150 mM NaCl, 500 mM imidazole, over 20 column volumes. Final purification was completed by Superdex 200 prep grade size exclusion column. Purified protein was stored at −80° C. in 20 mM HEPES pH 7.5 and 100 mM NaCl. Protein identity was confirmed by peptide mass fingerprinting and predicted molecular weight confirmed by mass spectrometry.
Protocol for Bromodomain BRD2, 3, 4 and T, BD1^+BD2 mutant assays: All assay components were dissolved in buffer composition of 50 mM HEPES pH7.4, 50 mM NaCl, 5% Glycerol, 1 mM DTT and 1 mM CHAPS. The final concentration of bromodomain proteins were 10 nM and the Alexa Fluor647 ligand was at Kd. These components were premixed and 5 μl of this reaction mixture was added to all wells containing 50 nl of various concentrations of test compound or DMSO vehicle (0.5% DMSO final) in Greiner 384 well black low volume microtitre plates and incubated in dark for 30 minutes at room temperature. 5 μl of detection mixture containing 1.5 nM final concentration anti-6His Europium chelate was added to all wells and a further dark incubation of at least 30 minutes was performed. Plates were then read on the Envision platereader, (λex=317 nm, donor λem=615 nm; acceptor λem=665 nm; Dichroic LANCE dual). Time resolved fluorescent intensity measurements were made at both emission wavelengths and the ratio of acceptor/donor was calculated and used for data analysis. All data was normalized to the mean of 16 high (inhibitor control—Example 11 of WO 2011/054846A1) and 16 low (DMSO) control wells on each plate. […]

Where a name gives a salt, the structure may show the parent alone. Some results are limits rather than exact numbers.

Consider `Cn1cc(-c2ccc(C(=O)O)cc2OCC2CC2)c2oc(CN3CCN(S(C)(=O)=O)CC3)cc2c1=O` [Example 67, 3-(cyclopropylmethoxy)-4-(5-methyl-2-((4-(methylsulfonyl)piperazin-1-yl)methyl)-4-oxo-4,5-dihydrofuro[3,2-c]pyridin-7-yl)benzoic acid], for which the IC50 is at most 10 nM.
On to `CC(Nc1cc(-c2cn(C)c(=O)c3cc(CN4CCN(S(C)(=O)=O)CC4)oc23)ccn1)c1ccccc1` (stereo not drawn) [Example 14, 5-methyl-2-((4-(methylsulfonyl)piperazin-1-yl)methyl)-7-(2-((1-phenylethyl)amino)pyridin-4-yl)furo[3,2-c]pyridin-4(5H)-one], for which the IC50 is at most 100 nM.
Then `CC(=O)Nc1cc(-c2cn(C)c(=O)c3cc(C(C)(C)N4CCN(S(C)(=O)=O)CC4)oc23)ccn1` [Example 65, N-(4-(5-methyl-2-(2-(4-(methylsulfonyl)piperazin-1-yl)propan-2-yl)-4-oxo-4,5-dihydrofuro[3,2-c]pyridin-7-yl)pyridin-2-yl)acetamide], with at most 100 nM; and `CCC(=O)Nc1cc(-c2cn(C)c(=O)c3cc(CN4CCN(S(C)(=O)=O)C[C@H]4C)oc23)ccn1` [Example 25, (R)—N-(4-(5-methyl-2-((2-methyl-4-(methylsulfonyl)piperazin-1-yl)methyl)-4-oxo-4,5-dihydrofuro[3,2-c]pyridin-7-yl)pyridin-2-yl)propionamide], with at most 100 nM; and `CC(=O)Nc1cccc(-c2cn(C)c(=O)c3cc(CN4CCN(S(C)(=O)=O)CC4)oc23)c1` [Example 48, N-(3-(5-methyl-2-((4-(methylsulfonyl)piperazin-1-yl)methyl)-4-oxo-4,5-dihydrofuro[3,2-c]pyridin-7-yl)phenyl)acetamide], with at most 100 nM.
On to `C[C@@H]1CN(S(C)(=O)=O)CCN1Cc1cc2c(=O)n(C)cc(-c3ccnc(OCC4CC4)c3)c2o1` [Example 23, (R)-7-(2-(cyclopropylmethoxy)pyridin-4-yl)-5-methyl-2-((2-methyl-4-(methylsulfonyl)piperazin-1-yl)methyl)furo[3,2-c]pyridin-4(5H)-one], for which the IC50 was at most 100 nM.
Take `C[C@@H]1CN(S(C)(=O)=O)CCN1Cc1cc2c(=O)n(C)cc(-c3ccncc3OC[C@H]3CCO3)c2o1` [Example 42, 5-methyl-2-(((R)-2-methyl-4-(methylsulfonyl)piperazin-1-yl)methyl)-7-(3-((R)-oxetan-2-ylmethoxy)pyridin-4-yl)furo[3,2-c]pyridin-4(5H)-one]: the IC50 is at most 100 nM.
`COc1ccc(-c2cn(C)c(=O)c3cc(CN4CCN(S(C)(=O)=O)C[C@H]4C)oc23)cc1OC` [Example 10, (R)-7-(3,4-dimethoxyphenyl)-5-methyl-2-((2-methyl-4-(methylsulfonyl)piperazin-1-yl)methyl)furo[3,2-c]pyridin-4(5H)-one]: the IC50 is at most 100 nM.
Take `CC(=O)Nc1cc(-c2cn(C)c(=O)c3cc(CN4CC(C)N(S(C)(=O)=O)CC4C)oc23)ccn1` (stereo not drawn) [Example 96, N-(4-(2-((2,5-dimethyl-4-(methylsulfonyl)piperazin-1-yl)methyl)-5-methyl-4-oxo-4,5-dihydrofuro[3,2-c]pyridin-7-yl)pyridin-2-yl)acetamide]: the IC50 is at most 100 nM.
Consider `COCCOc1cnccc1-c1cn(C)c(=O)c2cc(CN3CCN(S(C)(=O)=O)C[C@H]3C)oc12` [Example 66, (R)-7-(3-(2-methoxyethoxy)pyridin-4-yl)-5-methyl-2-((2-methyl-4-(methylsulfonyl)piperazin-1-yl)methyl)furo[3,2-c]pyridin-4(5H)-one], for which the IC50 was at most 100 nM.
As for `CC(C)Oc1cnccc1-c1cn(C)c(=O)c2cc(CN3CCN(S(C)(=O)=O)C[C@H]3C)oc12` [Example 58, (R)-7-(3-isopropoxypyridin-4-yl)-5-methyl-2-((2-methyl-4-(methylsulfonyl)piperazin-1-yl)methyl)furo[3,2-c]pyridin-4(5H)-one], the IC50 was at most 100 nM.
`C[C@@H]1CN(S(C)(=O)=O)CCN1Cc1cc2c(=O)n(C)cc(-c3ccncc3OCC3CCCO3)c2o1` (stereo partly drawn) [Example 70, 5-methyl-2-(((R)-2-methyl-4-(methylsulfonyl)piperazin-1-yl)methyl)-7-(3-((tetrahydrofuran-2-yl)methoxy)pyridin-4-yl)furo[3,2-c]pyridin-4(5H)-one]: the IC50 is at most 100 nM.
As to `CC(=O)Nc1cccc(-c2cn(C)c(=O)c3cc(CN4CCN(S(C)(=O)=O)C[C@H]4C)oc23)n1` [Example 54, (R)-N-(6-(5-methyl-2-((2-methyl-4-(methylsulfonyl)piperazin-1-yl)methyl)-4-oxo-4,5-dihydrofuro[3,2-c]pyridin-7-yl)pyridin-2-yl)acetamide], the IC50 is at most 100 nM.
Consider `C[C@@H]1CN(S(C)(=O)=O)CCN1Cc1cc2c(=O)n(C)cc(-c3ccncc3OCC3CCOC3)c2o1` (stereo partly drawn) [Example 69, 5-methyl-2-(((R)-2-methyl-4-(methylsulfonyl)piperazin-1-yl)methyl)-7-(3-((tetrahydrofuran-3-yl)methoxy)pyridin-4-yl)furo[3,2-c]pyridin-4(5H)-one], for which the IC50 was at most 100 nM.
`C[C@@H]1CN(S(C)(=O)=O)CCN1Cc1cc2c(=O)n(C)cc(-c3ncccc3OCC3CC3)c2o1` [Example 44, (R)-7-(3-(cyclopropylmethoxy)pyridin-2-yl)-5-methyl-2-((2-methyl-4-(methylsulfonyl)piperazin-1-yl)methyl)furo[3,2-c]pyridin-4(5H)-one]: the IC50 is at most 100 nM.
On to `COc1ccc(-c2cn(C)c(=O)c3cc(CN4CCN(S(C)(=O)=O)CC4)oc23)cc1OC` [Example 1, 7-[3,4-bis(methyloxy)phenyl]-5-methyl-2-{[4-(methylsulfonyl)-1-piperazinyl]methyl}furo[3,2-c]pyridin-4(5H)-one], for which the IC50 was at most 100 nM.
Regarding `C[C@@H]1CN(S(C)(=O)=O)CCN1Cc1cc2c(=O)n(C)cc(-c3ccncc3OC3CC3)c2o1` [Example 73, (R)-7-(3-cyclopropoxypyridin-4-yl)-5-methyl-2-((2-methyl-4-(methylsulfonyl)piperazin-1-yl)methyl)furo[3,2-c]pyridin-4(5H)-one], the IC50 is at most 100 nM.
As for `COCCOc1cc(-c2cn(C)c(=O)c3cc(CN4CCN(S(C)(=O)=O)C[C@H]4C)oc23)ccn1` [Example 26, (R)-7-(2-(2-methoxyethoxy)pyridin-4-yl)-5-methyl-2-((2-methyl-4-(methylsulfonyl)piperazin-1-yl)methyl)furo[3,2-c]pyridin-4(5H)-one], the IC50 is at most 100 nM.
For the compound `Cn1cc(-c2ccncc2OCC2CC2)c2oc(CN3CCNC(=O)C3)cc2c1=O` [Example 71, 7-(3-(cyclopropylmethoxy)pyridin-4-yl)-5-methyl-2-((3-oxopiperazin-1-yl)methyl)furo[3,2-c]pyridin-4(5H)-one hydrochloride], the IC50 was at most 100 nM.
Consider `CC(=O)Nc1cc(-c2cn(C)c(=O)c3cc(CN4CCNC(=O)CC4)oc23)ccn1` [Example 82, N-(4-(5-methyl-4-oxo-2-((5-oxo-1,4-diazepan-1-yl)methyl)-4,5-dihydrofuro[3,2-c]pyridin-7-yl)pyridin-2-yl)acetamide], for which the IC50 was at most 100 nM.
Then `Cn1cc(-c2ccncc2NCC2CC2)c2oc(CN3CCN(S(C)(=O)=O)CC3)cc2c1=O` [Example 39, 7-(3-((cyclopropylmethyl)amino)pyridin-4-yl)-5-methyl-2-((4-(methylsulfonyl)piperazin-1-yl)methyl)furo[3,2-c]pyridin-4(5H)-one], with at most 100 nM.
